Data from patent US20250108110A1, “COMBINATION THERAPY FOR USE IN TREATMENT OF NON-SMALL CELL LUNG CANCER” (Alethia Biotherapeutics Inc., priority 2022, published 2025).

Key:
[1] = tested on: advanced non-small cell lung cancer; settings: second-line chemotherapy; cited from earlier work
[2] = Pharmacokinetics of AB-16B5 in treated subjects; type: in vivo, human; settings: preliminary pharmacokinetics data (not shown), 12 mg/kg once weekly
Source text: Yet another secondary objective of this study is to determine the pharmacokinetics of AB-16B5 in this subject population.

Molecule | efficacy of 50 mg/m^2 once every two weeks versus 75 mg/m^2 once every three weeks [1] | accumulation of the antibody in the treated subjects over time [2]
CC(=O)O[C@@]12CO[C@@H]1C[C@H](O)[C@@]1(C)C(=O)[C@H](O)C3=C(C)[C@@H](OC(=O)[C@H](O)[C@@H](NC(=O)OC(C)(C)C)c4ccccc4)C[C@@](O)([C@@H](OC(=O)c4ccccc4)[C@H]21)C3(C)C [docetaxel] | as effective as | –
AB-16B5: humanized IgG2 monoclonal antibody targeting sCLU for the inhibition of cancer-associated EMT; light chain SEQ ID NO:14, heavy chain SEQ ID NO:15 | – | accumulation
